Source: PMC4823791, “A dual drug regimen synergistically blocks human parainfluenza virus infection” (Scientific Reports, 2016)

Tests used:
[1] = target: T1, hPIV-3 HN (haemagglutinin-neuraminidase) (Human parainfluenza 3 virus (strain NIH 47885), UniProt P08492); experiment: fluorogenic MUN neuraminidase inhibition screen; assay type: biochemical
Source text: fluorogenic MUN neuraminidase inhibition screen on hPIV-3 HN (haemagglutinin-neuraminidase) | Evans blue and erythrosine sodium, with a neuraminidase inhibition of […]

[2] = target: T1, hPIV-3 HN (haemagglutinin-neuraminidase); experiment: STD-NMR; assay type: binding; conditions: 5 mM zanamivir alone, 50 mM NaOAc, 5 mM CaCl2, pD 4.6, 283 K; purified UV-inactivated virus particles
[3] = target: T1, hPIV-3 HN (haemagglutinin-neuraminidase); experiment: Lineweaver-Burk kinetics, MUN fluorescence; assay type: biochemical; conditions: virus particles; MUN 2-20 mM, so Km lies above the tested range (extrapolated): unreliable
Protocol: Lineweaver-Burk kinetics, MUN fluorescence on hPIV-3 HN (haemagglutinin-neuraminidase) | constant (KM) value ... was calculated from this point of convergence

[4] = target: T1, hPIV-3 HN (haemagglutinin-neuraminidase); experiment: Lineweaver-Burk kinetics, MUN fluorescence; assay type: biochemical; conditions: non-competitive; MUN 2-20 mM, suramin 0, 10, 16 μM; virus particles
[5] = target: T1, hPIV-3 HN (haemagglutinin-neuraminidase); experiment: fluorogenic MUN neuraminidase inhibition assay; assay type: biochemical; conditions: neuraminidase activity; 2 mM MUN, pH 4.6, 5 mM CaCl2, 37 °C, 30 min; PEG-precipitated intact virus; non-competitive

T1 sequence (P08492 whole entry): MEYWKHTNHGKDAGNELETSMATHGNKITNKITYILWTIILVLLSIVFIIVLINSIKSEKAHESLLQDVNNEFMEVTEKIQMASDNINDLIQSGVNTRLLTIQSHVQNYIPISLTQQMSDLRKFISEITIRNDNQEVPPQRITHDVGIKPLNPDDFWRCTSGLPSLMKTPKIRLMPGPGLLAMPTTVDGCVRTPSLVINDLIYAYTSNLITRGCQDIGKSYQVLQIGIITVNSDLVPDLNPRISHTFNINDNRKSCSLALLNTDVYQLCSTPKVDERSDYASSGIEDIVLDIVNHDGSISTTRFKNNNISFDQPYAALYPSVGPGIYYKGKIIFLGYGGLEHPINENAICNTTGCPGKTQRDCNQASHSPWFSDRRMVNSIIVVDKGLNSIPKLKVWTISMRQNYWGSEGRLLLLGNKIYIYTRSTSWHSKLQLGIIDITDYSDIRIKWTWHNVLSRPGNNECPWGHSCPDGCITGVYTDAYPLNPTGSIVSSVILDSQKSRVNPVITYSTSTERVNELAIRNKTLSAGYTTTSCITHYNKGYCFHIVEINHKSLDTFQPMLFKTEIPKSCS

Compound `Cc1cc(-c2ccc(/N=N/c3ccc4c(S(=O)(=O)O)cc(S(=O)(=O)O)c(N)c4c3O)c(C)c2)ccc1/N=N/c1ccc2c(S(=O)(=O)O)cc(S(=O)(=O)O)c(N)c2c1O` [Evans blue] has an inhibition at 100 µM [1] of 79.4 ± 1.8%.

With `CC(=O)N[C@H]1[C@H]([C@H](O)[C@H](O)CO)OC(C(=O)O)=C[C@@H]1N=C(N)N` [compound 3, zanamivir] the STD-NMR [2] was “STD-NMR signals of both drugs were obtained, thus confirming their binding to HN”.

Work on `CC(=O)N[C@H]1[C@H]([C@H](O)[C@H](O)CO)O[C@@](Oc2ccc3c(C)cc(=O)oc3c2)(C(=O)O)C[C@@H]1O` [compound 6, 2′-(4-methylumbelliferyl) α-D-N-acetylneuraminide] yielded a KM [3] of 30.3 ± 1.02 mM.

`Cc1ccc(C(=O)Nc2ccc(S(=O)(=O)O)c3cc(S(=O)(=O)O)cc(S(=O)(=O)O)c23)cc1NC(=O)c1cccc(NC(=O)Nc2cccc(C(=O)Nc3cc(C(=O)Nc4ccc(S(=O)(=O)O)c5cc(S(=O)(=O)O)cc(S(=O)(=O)O)c45)ccc3C)c2)c1` [compound 7, suramin] was tested, and the Ki [4] was 5.06 ± 0.62 µM and the IC50 [5] was 13.5 µM.

`O=C1OC2(c3ccccc31)c1cc(I)c(O)c(I)c1Oc1c2cc(I)c(O)c1I` [erythrosine sodium] showed an inhibition at 100 µM [1] of 92.8 ± 0.9%.
